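Briefly, cells in 96-well plates were exposed to five compound concentrations for 48 h, and endpoints were estimated by linear interpolation. Abbreviation: GI50, concentration required for 50% inhibition of growth. TGI denotes the concentration required for complete inhibition of growth.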
Key:
Experiment in all cases: growth of human tumour cells (NCI), 48 h
[1] = tested on: ACHN renal
[2] = tested on: T-47D breast
[3] = tested on: HCT-116 colon
[4] = tested on: MOLT-4 leukemia
[5] = tested on: SF-295 CNS
[6] = tested on: MALME-3M melanoma
[7] = tested on: K-562 leukemia
[8] = tested on: SNB-19 CNS
[9] = tested on: OVCAR-3 ovarian
[10] = tested on: TK-10 renal

SMILES | GI50 [1] | TGI [1] | GI50 [2] | TGI [2] | GI50 [3] | TGI [3] | GI50 [4] | TGI [4] | GI50 [5] | TGI [5] | GI50 [6] | TGI [6] | GI50 [7] | TGI [7] | GI50 [8] | TGI [8] | GI50 [9] | TGI [9] | GI50 [10] | TGI [10]
CNc1ncc2cc(Oc3ccc(F)cc3F)c(=O)n(C)c2n1 | > 25 µM | > 25 µM | > 25 µM | > 25 µM | > 25 µM | > 25 µM | > 25 µM | > 25 µM | > 25 µM | > 25 µM | > 25 µM | > 25 µM | > 25 µM | > 25 µM | > 25 µM | > 25 µM | > 25 µM | > 25 µM | > 23.1 µM | > 25 µM
O=C1OC(OC/C(Br)=C(/Br)COC2OC(=O)C(Cl)=C2Cl)C(Cl)=C1Cl (stereo not given) |  | 24.8 µM |  | 30.8 µM |  | 10 µM |  | 5.44 µM |  | 34.2 µM |  | 21.2 µM |  | 5.85 µM |  | 37 µM |  | 14.6 µM |  | 27 µM
CN(C)N=Nc1nn(C(=O)Nc2ccc(Cc3ccccc3)cc2)c2ccccc12 | 0.282 µM | > 100 µM | 0.0719 µM | > 100 µM | > 100 µM | > 100 µM | 7.47 µM | > 100 µM | 0.225 µM | 3.12 µM | 6.6 µM | > 100 µM | 0.0373 µM | > 100 µM | > 100 µM | > 100 µM | 11.8 µM | > 100 µM | > 100 µM | > 100 µM
O=C(CN1C(=O)S/C(=C\C(Cl)=C\c2ccccc2)C1=O)NCCCn1ccnc1 | 1.99 µM | 5.22 µM | 2.8 µM | 17.2 µM | 1.53 µM | 3.14 µM | 2.1 µM | 7.57 µM | 10 µM | 24.4 µM | 1.82 µM | 4.9 µM | 2.17 µM | > 100 µM | 3.14 µM | 13 µM | 1.76 µM | 3.25 µM | 2.3 µM | 4.53 µM
COC(=O)Nc1nc2ccc(S(=O)(=O)c3ccc(NC(=O)Nc4cc(C(F)(F)F)ccc4F)cc3)cc2[nH]1 | > 25 µM | > 25 µM | > 25 µM | > 25 µM | > 25 µM | > 25 µM | > 25 µM | > 25 µM | > 25 µM | > 25 µM | > 25 µM | > 25 µM | > 25 µM | > 25 µM | > 25 µM | > 25 µM | > 25 µM | > 25 µM | > 25 µM | > 25 µM
NCCSC(C[N+](=O)[O-])c1ccccc1Cl (stereo not given) | 9.85 µM | 22.1 µM | 2.23 µM | 9.09 µM | 1.18 µM | 3.08 µM | 10.2 µM | > 25.8 µM | 1.5 µM | 3.83 µM | 16.3 µM | 36.7 µM | 2.96 µM | > 23.7 µM | 3.38 µM | 11.5 µM | 1.88 µM | 3.5 µM | 5.59 µM | 19 µM
COC1C(O)C(C)OC(O[C@@H]2C[C@H]3CC[C@@H]4[C@H](CC[C@]5(C)[C@@H](C6=CC(=O)OC6)CC[C@]45O)[C@@]3(C)[C@H](O)C2)C1O (stereo not given in full) |  | 0.615 µM |  | 0.817 µM |  | 0.0994 µM |  | < 0.0273 µM |  | 0.321 µM |  | 0.119 µM |  | 0.457 µM |  | 1.26 µM |  | 0.0838 µM |  | 0.896 µM
Oc1ccc(O)c2c1C1(Cl)C(Cl)=C(Cl)C2(Cl)C1(Cl)Cl | 4.43 µM | 21.3 µM | 5.19 µM | 24.3 µM | 3.07 µM | 12.8 µM | 2.87 µM | 19 µM | 1.67 µM | 7.2 µM | 2.31 µM | 9.95 µM | 2.94 µM | 93 µM | 9.45 µM | 27.3 µM | 2.03 µM | 5.17 µM | 4.96 µM | 27.7 µM
C=C1C(=O)O[C@H]2[C@H]1CC/C(CNC(=O)/C=C/c1ccc(Cl)cc1Cl)=C\CC[C@@]1(C)O[C@@H]21 | 1.13 µM | 2.48 µM | 1.18 µM | 3.45 µM | 0.647 µM | 2 µM | 0.275 µM | 1.58 µM | 1.62 µM | 3.83 µM | 1.29 µM | 2.7 µM | 0.696 µM | 4.16 µM | 3.24 µM | 14.2 µM | 0.434 µM | 1.57 µM | 1.55 µM | 2.9 µM
O=C(NN1C(=O)CSC12CCC(c1ccccc1)CC2)c1[nH]c2ccc(F)cc2c1-c1ccccc1 (stereo not given) | 17.2 µM | 31.8 µM | 33.5 µM | > 100 µM | 14 µM | 27.1 µM | 12.2 µM | 33.7 µM | 22 µM | 41.6 µM | 16.2 µM | 30.9 µM | 23.7 µM | 62.9 µM | 29.8 µM | > 100 µM | 17.1 µM | 31.5 µM | 17.3 µM | 31.7 µM
CN(C)C(=S)SCC(N)=O |  | > 100 µM |  | > 100 µM |  | > 100 µM |  | > 100 µM |  | > 100 µM |  | > 100 µM |  | > 100 µM |  | > 100 µM |  | > 100 µM |  | > 100 µM

Reference: PubChem BioAssay (NCI)
